The values that follow come from patent US20250162988A1, “CRYSTALS OF VITAMIN D DERIVATIVE OR CRYSTALS OF SOLVATE THEREOF” (TEIJIN PHARMA LIMITED, priority 2022, published 2025).

Data set [1] deals with rat oligodendrocyte progenitor cells. The data set can be described thus: Promotive activity of rat oligodendrocyte progenitor cell differentiation (MBP immunostaining). In kind it is cell-based, SD rats. The settings on record: vitamin D derivative 2 μM, T3 30 nM, cultured for 4 days. Here is the method: The promotive activity of oligodendrocyte progenitor cell (OPC) differentiation of the vitamin D derivatives was evaluated by immunostaining of myelin basic protein (MBP).
Subsequently, oligodendrocyte progenitor cell separation medium was added to the flask, and the mixture was similarly shaken for about 22 hours (37° C., 200 rpm), and the supernatant was collected to prepare oligodendrocyte progenitor cells.
After cell seeding, a solution of the test compound or a solution prepared from DMSO with a differentiation medium were added to the cells such that the DMSO concentration in the wells was 0.1%. The cells were cultured for 4 days.

A short description of data set [2]: Evaluation of brain penetration in mice (single oral dose, plasma and brain level by LC/MS/MS). The format is in vivo, C57BL/6J mice. The settings on record: mean ± S.D. Here is the method: The administration solution was administered orally to C57BL/6J mice (8 weeks old, male, n=3) at a single dose (1 mg/kg). Mice were euthanized at 6 points of 0.25, 0.5, 1, 2, 4, and 8 hours after administration, and plasma and brain sampling were performed. After preparing a homogenate from the collected brain using Tissue Lyser II (QIAGEN #85300), acetonitrile was added to the homogenate and the homogenate was centrifuged (TOMY DIGITAL BIOLOGY MX-307, 12000 rpm, 5 minutes) to extract the administered test compound contained in the brain. Similarly, the plasma was subjected to addition of acetonitrile and centrifugal separation to extract the administered test compound contained in the plasma. Each extracted sample was subjected to measurement of the concentration of administered test compound using LC/MS/MS (SHIMADZU UFLC/MS/MS (8050)).
The administration solution was administered orally to C57BL/6J mice (8 weeks old, male, n=3) at a single dose (0.2 mg/kg). Mice were euthanized at 6 points of 0.25, 0.5, 1, 2, 4, and 8 hours after administration, and plasma and brain sampling were performed. After preparing a homogenate from the collected brain using Tissue Lyser II (QIAGEN #85300), acetonitrile was added to the homogenate and the homogenate was centrifuged (TOMY DIGITAL BIOLOGY MX-307, 12000 rpm, 5 minutes) to extract the administered compound contained in the brain. Similarly, the plasma was subjected to addition of acetonitrile and centrifugal separation to extract the administered test compound contained in the plasma. Each extracted sample was subjected to measurement of the concentration of administered test compound using LC/MS/MS (SHIMADZU UFLC/MS/MS (8050)).

For data set [3] the following is noted: in vivo; cited from earlier work.
The mark [4] stands for this setting: Test 1, 1 mg/kg single oral dose.

Turning to `C[C@H](CN1CC[C@H](C(F)F)C1)[C@H]1CC[C@H]2/C(=C/C=C3C[C@@H](O)C[C@H](O)C3)CCC[C@]12C` [Compound (A), (1R,3R)-5-(2-((1R,3aS,7aR,E)-1-((S)-1-((S)-3-(difluoromethyl)pyrrolidin-1-yl)propan-2-yl)-7a-methyloctahydro-4H-inden-4-ylidene)ethylidene)cyclohexane-1,3-diol], in data set [1] (Test 1), the “Average value (mean) of the ratio (the number of MBP-positive cells/the number of Hoechst33342-positive cells)” value amounted to 0.47. Besides, the “Brain level at the time of brain Cmax” value in data set [2] (setting [4]) is 529 ± 53 pmol/g.

Consider `C[C@H](CN1CCOCC1(C)C)[C@H]1CC[C@H]2/C(=C/C=C3C[C@@H](O)C[C@H](O)C3)CCC[C@]12C` [Compound (F), (1R,3R)-5-(2-((1R,3aS,7aR,E)-1-((S)-1-(3,3-dimethylmorpholino)propan-2-yl)-7a-methyloctahydro-4H-inden-4-ylidene)ethylidene)cyclohexane-1,3-diol], for which the “Average value (mean) of the ratio (the number of MBP-positive cells/the number of Hoechst33342-positive cells)” value in data set [1] (Test 3) stood at 0.50. In data set [2] (Test 2, 0.2 mg/kg single oral dose), the “Brain level at the time of brain Cmax” value is reported as 137.8 ± 11.5 pmol/g.

Consider `C=C1/C(=C\C=C2/CCC[C@]3(C)[C@@H]([C@H](C)CCCC(C)(C)O)CC[C@@H]23)C[C@@H](O)C[C@@H]1O` [1α,25-dihydroxyvitamin D3], for which the “ratio of concentration in brain/concentration in blood” value in data set [3] is recorded as 0.007±0.003.

On to `C[C@H](CCN1CCOCC1)[C@H]1CC[C@H]2/C(=C/C=C3C[C@@H](O)C[C@H](O)C3)CCC[C@]12C` [Compound (E), (1R,3R)-5-(2-((1R,3aS,7aR,E)-7a-methyl-1-((R)-4-morpholinobutane-2-yl)octahydro-4H-inden-4-ylidene)ethylidene)cyclohexane-1,3-diol], for which the “Average value (mean) of the ratio (the number of MBP-positive cells/the number of Hoechst33342-positive cells)” value in data set [1] (Test 2) was 0.36. For the same compound, the “Brain level at the time of brain Cmax” value in data set [2] (setting [4]) turned out to be 595 ± 23 pmol/g.

For the compound `C[C@H](CN1CC[C@@H](C(F)F)C1)[C@H]1CC[C@H]2/C(=C/C=C3C[C@@H](O)C[C@H](O)C3)CCC[C@]12C` [Compound (B), (1R,3R)-5-(2-((1R,3aS,7aR,E)-1-((S)-1-((R)-3-(difluoromethyl)pyrrolidin-1-yl)propan-2-yl)-7a-methyloctahydro-4H-inden-4-ylidene)ethylidene)cyclohexane-1,3-diol], in data set [1] (Test 1), the “Average value (mean) of the ratio (the number of MBP-positive cells/the number of Hoechst33342-positive cells)” value turned out to be 0.38. Besides, the “Brain level at the time of brain Cmax” value in data set [2] (setting [4]) worked out at 384 ± 40 pmol/g.

For `C[C@H](CN1CC[C@@H](CC(F)F)C1)[C@H]1CC[C@H]2/C(=C/C=C3C[C@@H](O)C[C@H](O)C3)CCC[C@]12C` [Compound (D), (1R,3R)-5-(2-((1R,3aS,7aR,E)-1-((S)-1-((S)-3-(2,2-difluoroethyl)pyrrolidin-1-yl)propan-2-yl)-7a-methyloctahydro-4H-inden-4-ylidene)ethylidene)cyclohexane-1,3-diol], the “Average value (mean) of the ratio (the number of MBP-positive cells/the number of Hoechst33342-positive cells)” value in data set [1] (Test 2) was 0.53. Further, the “Brain level at the time of brain Cmax” value in data set [2] (setting [4]) turned out to be 80 ± 9 pmol/g.

Take `C[C@H](CN1CC[C@@H](C(C)(F)F)C1)[C@H]1CC[C@H]2/C(=C/C=C3C[C@@H](O)C[C@H](O)C3)CCC[C@]12C` [Compound (C), (1R,3R)-5-(2-((1R,3aS,7aR,E)-1-((S)-1-((R)-3-(1,1-difluoroethyl)pyrrolidin-1-yl)propan-2-yl)-7a-methyloctahydro-4H-inden-4-ylidene)ethylidene)cyclohexane-1,3-diol]: in data set [1] (Test 1), the “Average value (mean) of the ratio (the number of MBP-positive cells/the number of Hoechst33342-positive cells)” value is listed as 0.57. Moreover, the “Brain level at the time of brain Cmax” value in data set [2] (setting [4]) is reported as 562 ± 50 pmol/g.
